In assay [1] the test system is senescent cells (multiple models of senescence). Kind of assay: Flow cytometry accumulation in control and senescent cells. The format is cell-based, human. The conditions noted are these: 12-16 hours exposure. Here is the method: LSR Fortessa (BD-Becton Dickinson) was used for flow cytometry analysis. For cyanine dye nanoparticle and small molecule studies, 6 well plates were used and seeded 200,000 cells per well. […] After this, cells were trypsinised and re-suspended in PBS buffer with 2% FBS. At least 10,000 live events were collected for each condition. DAPI (Sigma) was added to exclude dead cells. The analysis of all flow cytometry data was performed using FlowJo v10 (Treestar, OR). Unstained control and senescent cells were used as reference for each independent experiment. For ICG the 640 nm laser was used with an emission window of 750-810 nm. For the cyanine dye nanoparticle, the 640 nm laser was used with an emission window of 708-753 nm.

A further assay relates to SK-MEL-103 xenografts. Kind of assay: Ex vivo IVIS fluorescence imaging of untreated and Palbociclib treated xenografts. Type of assay: in vivo, mice. The conditions noted are these: 200 μL of 1 mg/mL tail vein, 6 h, p=0.0438. The protocol:
All mice were treated in strict accordance with the local ethical committee (University of Cambridge License Review Committee) and the UK Home Office guidelines. Tumour xenografts were established using SK-MEL-103. Cells were trypsinised, counted with a haemocytometer, and injected subcutaneously (10^6 cells in a volume of 100 μL per dorsolateral flank) in 8- to 10-week-old athymic nude female mice (Crl:NU(NCr)-Foxn1^nu) purchased from Charles River Laboratories. Tumour volume was measured every 2 days with a caliper and calculated as V=(a×b 2)/2 where a is the longer and b is the shorter of two perpendicular diameters. […]
An IVIS Spectrum Imaging System (Perkin Elmer Inc) was used for ex vivo fluorescence imaging. For ex vivo imaging, mice were sacrificed by cervical dislocation and organs and tumour xenografts were analysed immediately after harvesting. ICG was detected using an excitation wavelength of 710-740 nm and emission bandpass from 810-830 nm. […] Fluorescence imaging quantification was performed by Living Image 3.2 software (Perkin Elmer Inc). […] Fluorescence activity is measured in photons per second per square centimetre per steradian (p/s/cm^2/sr). […]
See Examples—part A. Fluorescence activity is measured as average Radiant Efficiency with the equation of [p/s/cm2/sr]/[μW/cm2].

For assay [2], the system named is uptake of cyanine dye nanoparticles in control and senescent cells. Kind of assay: Endocytosis analysis by confocal microscopy with endocytosis pathway inhibitors. The format is cell-based. Conditions: inhibitor 1 h before nanoparticles, 12-16 h. The protocol:
Cells were trypsinized and seeded in flat-bottom μ-clear 96-well plates (Greiner Bio-One, #655087) at a density of 3,500-5,000 control and 4,000-6,000 senescent cells/well. Once the cells were attached, culture medium was changed to DMEM without FBS and exposed to a number of different inhibitors for 1 h. […] The cells were washed 3x with PBS for 5 min. Specific organelle stain LysoTracker Green DND-26 (Cell Signaling Technology, FM8783) was used according to the manufacturers protocol. For nuclei staining, Hoechst at 0.1 μg/mL in PBS was added 10 min prior to analysis.

SMILES strings stand for the structures. “Also recorded” adds a separate entry of the source.

With `CC1(C)C(/C=C/C=C/C=C/C=C2\N(CCCCS(=O)(=O)O)c3ccc4ccccc4c3C2(C)C)=[N+](CCCCS(=O)(=O)[O-])c2ccc3ccccc3c21` [ICG, indocyanine green], the “accumulation in senescent cells compared to controls” value in assay [1] was “accumulation of ICG”. The “ICG emission in untreated (control) vs Palbociclib treated tumours” value in the assay with SK-MEL-103 xenografts was “accumulation in untreated tumours as opposed to senescent tumours; also recorded: significantly higher signal in the control tumours”.
As to `O=C1NC(=NS(=O)(=O)c2cccc3ccccc23)S/C1=C\c1ccc(Br)cc1` [Pitstop 2], the “effect of inhibitor on uptake of cyanine dye nanoparticles” value (“effect of inhibitor” below) in assay [2] was “significant inhibition; also recorded: significant inhibitor of endocytosis”.
Consider `CCN(CC)CCCC(C)Nc1ccnc2cc(Cl)ccc12` (centres unmarked) [chloroquine], for which the “effect of inhibitor” value is on record as “significantly enhances” in assay [2] and “more dramatic increase” in assay [2] (listed as Chloroquine).
For `O=C(N/N=C/c1cc(O)c(O)cc1O)c1cc2ccccc2cc1O` [dynago4a], the “effect of inhibitor” value is “significantly inhibited” in assay [2] and “significant inhibition” in assay [2] (listed as dyngo4a).
For `CN1CCN(CCCN2c3ccccc3Sc3ccc(Cl)cc32)CC1` [prochloroperazine], the “effect of inhibitor” value in assay [2] is “not inhibited”.

Values taken from patent US20250152750A1 (Cancer Research Technology Limited, priority 2022, published 2025).
